This is an account of results in patent US20240238287A1, “PHARMACEUTICAL COMPOSITION FOR PREVENTING OR TREATING CANCER” (priority 2021, published 2024).

Each structure is given as a SMILES string.

Test [1] deals with HS746T cells. The experiment in a line: CyQUANT cell proliferation / viability assay, stem-like subtype cell line. In kind it is cell-based. The settings on record: for survival of HS746T, inhibitor with glutamine deficiency vs each alone: Gln(−), PHGDH inhibitor 25 μM, SHMT inhibitor 1 μM, MTHFD2 inhibitor 0.5 μM, FIGS. 9 to 11; for cell proliferation: HS746T, DON 1, 50, 150 μM, CB839 1, 5, 25 μM, BPTES 5, 10, 25 μM, FIGS. 5 to 7. Here is the method:
(§1) NCIN87, an intestinal subtype cell line, and HS746T, a stem-like subtype cell line, were dispensed in a 96-well plate (black) with 5000 cells each, and replaced with glutamine-deficient culture medium (Gibco) the next day. Then, the cell lines were treated with DON (1 μM, 50 μM, 150 μM; selleckchem, cat no. S8620), CB839 (1 μM, 5 μM, 25 μM; cayman, cat no. S7655) or BPTES (5 μM, 10 μM, 25 μM; MCE, cat no. HY-12683) and the treatment time was 0 hours, and the cell culture medium was discarded at 24, […] and 72 hours, and stored in an ultra-low temperature freezer at −80° C. After culturing the cells stored in this way at room temperature, 200 μl of cell lysate containing GR dye contained in the cell viability assay kit (CyQUANT cell proliferation assay, Invitrogen) was placed in each well of the cultured cells and incubated at room temperature for 5 min. Afterwards, The intensity of fluorescence was measured at a wavelength of 480 nm and 520 nm excitation using a fluorescence photometer (thermo, varioskan flash 3001), and the measured value was standardized to the number of cells at 0 hour, quantified in %, and the value was shown in FIGS. 4 to 7.
As described in Example 4, after dispensing and incubating the stem-like subtype cell line HS746T, replacing it with a glutamine-deficient culture medium, administering a PHGDH inhibitor (25 μM), SHMT inhibitor (1 μM) or MTHFD2 inhibitor (0.5 μM), and using a cell viability assay kit, the survival rate measured using the cell viability assay kit was shown in FIGS. 9 to 11.

Test [2] concerns SEM-type GC cells. The experiment in a line: Mitochondrial ROS estimated by MitoSOX. The class given is cell-based. The settings on record: NCT503 treatment and glutamine starvation.
Test [3] concerns HS746T cells. Briefly: Amount of NADP. In kind it is cell-based. To be noted: PHGDH-inhibited cells with glutamine deficiency.
Test [4] deals with HS746T cells. The experiment in a line: Ratio of reduced (GSH) to oxidized glutathione (GSSG). The class given is cell-based. To be noted: HS746T cultured without glutamine plus PHGDH inhibition.
Test [5] has as its system SEM-type GC cells. The experiment in a line: Cell death by GLS/PHGDH inhibitor cotreatment and antioxidant rescue. In kind it is cell-based. To be noted: addition of antioxidant.
Another test concerns NCIN87 cells. The experiment in a line: CyQUANT cell proliferation assay, intestinal subtype cell line. In kind it is cell-based. The settings on record: DON 1, 50, 150 μM, CB839 1, 5, 25 μM, BPTES 5, 10, 25 μM, FIGS. 5 to 7. Here is the method: as §1
Test [6] relates to GA077 stem-like subtype organoid. Briefly: Organoid diameter by optical microscopy. In kind it is cell-based. To be noted: CB839 5 μM alone, D1 to D4, FIG. 8.
Test [7] concerns glutamine-dependent liver cancer cells. To be noted: cited from earlier work.

As to `Cc1n[nH]c2c1C(c1cc(CO)cc(-c3ccccc3)c1)(C(C)C)C(C#N)=C(N)O2` (stereo not drawn) [SHMTi], the “survival of HS746T, inhibitor with glutamine deficiency vs each alone” value (“survival of HS746T, inhibitor … vs each alone” for short) with HS746T cells [1] is on record as “significant synergistic effect”.

Take `Cc1cc(C)nc(NC(=S)N2CCN(Cc3ccc(C(F)(F)F)cc3)CC2)c1` [NCT503]: the “mitochondrial ROS estimated by MitoSOX” value with SEM-type GC cells [2] is “highest”. In addition, the “amount of NADP” value in the test on HS746T cells [3] is given as “lowest”. Besides, the “ratio of reduced glutathione (GSH) to oxidized glutathione (GSSG)” value in the test on HS746T cells [4] is recorded as “decreased”. For the same compound, the “survival of HS746T, inhibitor … vs each alone” value in the test on HS746T cells [1] is recorded as “significant synergistic effect”.

Consider `CC(=O)N[C@@H](CS)C(=O)O` [NAC, N-acetylcysteine], for which the “rescue of cell death induced by cotreatment with CB839 and NCT503” value in the test with SEM-type GC cells [5] is “partially rescued”.

For `Cc1c(N2CCN(C)[C@@H](C)C2)ccc2c3c(c(=O)oc12)CN(C(=O)c1ccc(NS(C)(=O)=O)c(OC(F)(F)F)c1)CC3` [MTHFD2i], in the test with HS746T cells [1], the “survival of HS746T, inhibitor … vs each alone” value is “significant synergistic effect”.

As for `O=C(Cc1cccc(OC(F)(F)F)c1)Nc1ccc(CCCCc2nnc(NC(=O)Cc3ccccn3)s2)nn1` [CB839], the figures for the cell proliferation entry with NCIN87 cells and in the test with HS746T cells [1] were “inhibited” and “not reduced”, respectively. For the same compound, the “organoid size (diameter)” value in test [6] is “not reduced in size”. For the same compound, in test [7], the “antitumor effect of single-drug treatment” value is reported as “very limited antitumor effect”.

For `O=C(Cc1ccccc1)Nc1nnc(CCSCCc2nnc(NC(=O)Cc3ccccc3)s2)s1` [BPTES], the cell proliferation entry is “inhibited” with NCIN87 cells and “not reduced” with HS746T cells [1].

On to `[N-]=[N+]=CC(=O)CC[C@H](N)C(=O)O` [DON], for which the cell proliferation entry in the test with NCIN87 cells is recorded as “inhibited”; with HS746T cells [1], “not reduced”.
